Laboratory results as given in patent US5154930A, “Pharmacological agent-lipid solution preparation” (The Liposome Company, Inc., priority 1988, dated 1992).

Columns and labels:
[1] = Salting in: solubility in absolute ethanol with and without egg phosphatidylcholine; format: physicochemical; details: for increase in solubility or apparent solubility (co-solubilizing or salting-in) / salting in / form of apparent solubility: lipid in lipid solvent
Protocol: To determine whether phospholipids can increase the solubility or apparent solubility of a pharmacological agent such as salicylic acid acetate, both drug and lipid were co-solubilized in a lipid solvent such as absolute ethanol (USP). Five ml of this lipid solvent was able to dissolve about a maximum of 1 gr. salicylic acid acetate. A lipid such as egg phosphatidylcholine was completely dissolved in 5 ml of ethanol in a series of test tubes and to this solution crystals of the test pharmacological agent salicylic acid acetate were added gradually and dissolved. […] Any convenient temperature and pressur may be used for this procedure that will dot adversely affect the pharmacological agent or boil the lipid solvent.
Five ml of absolute ethanol was able to dissolve maximum 1 gr. salicylic acid acetate. Egg phosphatidylcholine (Hepar) 1.5 gm was completely dissolved in 5 ml of ethanol in a series of test tubes and to this solution crystals of salicylic acid acetate were added gradually and dissolved. […] To accelerate the dissolving process all test tubes containing crystals of salicylic acid acetate and lipid solvent were agitated gently in a water bath of 40° C. and cooled to about 22.5° C.+/- about 2.5° C. after crystals were completely dissolved.

[2] = Stability of agent to water (hydrolysis) in ethanol; format: physicochemical; details: water even at about 5% in ethanol

SMILES | increase in solubility of drug (salting in) ([1]; egg phosphatidylcholine ethanol versus ethanol) | increase in solubility or apparent solubility (co-solubilizing or salting-in) [1] | maximum amount dissolved in absolute ethanol [1] | tolerance of water (hydrolysis) [2] | salting in / form of apparent solubility [1] | salting in / form of apparent solubility ([1]; listed as Amphoteracin B)
COc1ccc2c(c1)c(CC(=O)O)c(C)n2C(=O)c1ccc(Cl)cc1 [indomethacin] | about 50% | ≤ 50% |  |  |  | 
CC(=O)Oc1ccccc1C(=O)O [salicylic acid acetate] |  | ≤ 50% | ~1 gr. | do not tolerate the presence of water even at about 5% in ethanol |  | 
C[C@@H]1[C@H](O)[C@@H](C)/C=C/C=C/C=C/C=C/C=C/C=C/C=C/[C@H](O[C@@H]2O[C@H](C)[C@@H](O)[C@H](N)[C@@H]2O)C[C@@H]2O[C@](O)(C[C@@H](O)C[C@@H](O)[C@H](O)CC[C@@H](O)C[C@@H](O)CC(=O)O[C@H]1C)C[C@H](O)[C@H]2C(=O)O [amphotericin B] |  |  |  |  | in the form of a complex with dissolved lipid rather than truly solubilized | similarly salted in but appears to do so in the form of complexes with lipid rather than simple solubilizing
